From patent US7767671B2, “3-Quinolinecarbonitrile protein kinase inhibitors” (Wyeth, priority 2004, dated 2010) come the findings set out here.

The IC50 is the point on the concentration scale where inhibition reaches its midpoint.

Molecules are shown by their SMILES.

For this assay, the target named is T1, recombinant human MEK 1 (MAPKK) / human ERK2 (MAPK) (Homo sapiens, UniProt P28482+Q02750).
T1 construct: GST; made in house
The experiment in a line: Mitogen Activated Protein Kinase (MAPK) test procedure (Mek-Erk coupled). It counts as biochemical. The note with it: MEK1-activated ERK2, 33P ATP, peptide substrate. On the procedure:
Mitogen Activated Protein Kinase (MAPK) Test Procedure
To evaluate inhibitors of the MAP (mitogen activated protein) kinase a two component coupled standard pharmacological test procedure, which measures phosphorylation of a serine/threonine residue in an appropriate sequence in the substrate in the presence and absence of a putative inhibitor, is used. Recombinant human MEK 1 (MAPKK) is first used to activate recombinant human ERK2 (MAPK) and the activated MAPK (ERK) is incubated with substrate (myelin basic protein peptide (MBPP) or Myc peptide) in the presence of ATP, Mg^+2 and radiolabeled ^33P ATP. The phosphorylated peptide is captured on a P 81 phosphocellulose filter (paper filter or embedded in microtiter plate) ished and counted by scintillation methods.
The peptide substrates used in the assay are MBPP, peptide substrate (APRTPGGRR), or synthetic Myc substrate, (KKFELLPTPPLSPSRR•5 TFA). […]
The reaction is run as follows in 50 mM Tris kinase buffer, pH 7.4 in a reaction volume of 50 ul. […] The filters are briefly air dried before addition of scintillant and samples are counted in the appropriate scintillation counter set up for reading ^33P isotope. […]
The raw data is captured as counts per minute (cpm). […] Mean cpm data is tabulated by group and % inhibition by a test compound is calculated as (corrected cpm control−corrected·cpm sample/control)×100=% inhibition). […]

T1 sequence (P28482 whole entry): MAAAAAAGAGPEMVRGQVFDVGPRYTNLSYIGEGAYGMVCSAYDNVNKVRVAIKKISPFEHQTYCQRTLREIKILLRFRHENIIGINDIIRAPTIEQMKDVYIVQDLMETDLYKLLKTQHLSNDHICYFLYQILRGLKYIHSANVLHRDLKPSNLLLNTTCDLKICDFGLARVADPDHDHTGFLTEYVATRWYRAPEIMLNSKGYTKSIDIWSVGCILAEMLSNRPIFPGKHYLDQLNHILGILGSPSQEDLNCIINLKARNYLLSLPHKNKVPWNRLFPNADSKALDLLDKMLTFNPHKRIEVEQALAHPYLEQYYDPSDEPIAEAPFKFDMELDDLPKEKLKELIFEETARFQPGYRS
T1 sequence (Q02750 whole entry): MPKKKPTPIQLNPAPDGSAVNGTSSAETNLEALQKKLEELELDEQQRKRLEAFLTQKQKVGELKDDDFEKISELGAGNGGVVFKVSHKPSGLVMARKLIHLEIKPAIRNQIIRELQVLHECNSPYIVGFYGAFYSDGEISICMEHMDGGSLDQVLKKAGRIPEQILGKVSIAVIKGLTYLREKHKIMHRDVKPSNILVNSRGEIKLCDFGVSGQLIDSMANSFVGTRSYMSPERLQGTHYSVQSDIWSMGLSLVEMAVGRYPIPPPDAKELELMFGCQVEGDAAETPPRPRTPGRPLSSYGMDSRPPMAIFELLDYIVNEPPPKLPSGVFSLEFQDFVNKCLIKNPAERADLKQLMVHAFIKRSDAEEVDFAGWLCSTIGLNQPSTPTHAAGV

Take `COc1cc2c(Nc3ccc(Oc4ccccc4)cc3)c(C#N)cnc2cc1OCCN1CCC(N2CCCCC2)CC1` [Example 32, 7-(2-[1,4′]Bipiperidinyl-1′-yl-ethoxy)-6-methoxy-4-(4-phenoxy-phenylamino)-quinoline-3-carbonitrile]: the IC50 was 45 nM.
